Assay results as given in PubChem BioAssay (NCI).
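The compound was tested at five concentrations on cells cultured in 96-well plates, with a 48-hour exposure period. Here, GI50 denotes the concentration required for 50% inhibition of growth. Definition used: TGI = concentration required for complete inhibition of growth.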

Columns and labels:
Assay in all cases: NCI-60 cell line screen, 48 h
[1] = test system: IGROV1 ovarian
[2] = test system: CCRF-CEM leukemia
[3] = test system: UACC-257 melanoma
[4] = test system: SR leukemia
[5] = test system: OVCAR-5 ovarian
[6] = test system: HOP-62 NSCLC
[7] = test system: MDA-MB-435
[8] = test system: DU-145 prostate
[9] = test system: K-562 leukemia
[10] = test system: HS 578T breast
[11] = test system: MCF7 breast
[12] = test system: ACHN renal
[13] = test system: OVCAR-3 ovarian
[14] = test system: SN12C renal
[15] = test system: BT-549 breast
[16] = test system: HCC-2998 colon
[17] = test system: HOP-92 NSCLC
[18] = test system: SNB-19 CNS
[19] = test system: RXF 393 renal
[20] = test system: SW-620 colon
[21] = test system: SF-539 CNS
[22] = test system: NCI-H522 lung
[23] = test system: HT29 colon
[24] = test system: T-47D breast
[25] = test system: TK-10 renal
[26] = test system: SK-MEL-5 melanoma
[27] = test system: SF-295 CNS
[28] = test system: RPMI-8226 leukemia
[29] = test system: HCT-116 colon
[30] = test system: EKVX NSCLC
[31] = test system: NCI-H460 lung
[32] = test system: NCI-H23 lung
[33] = test system: NCI/ADR-RES ovarian
[34] = test system: OVCAR-4 ovarian
[35] = test system: HCT-15 colon
[36] = test system: A549 NSCLC
[37] = test system: A498 renal
[38] = test system: KM12 colon
[39] = test system: MALME-3M melanoma
[40] = test system: SK-MEL-28 melanoma
[41] = test system: PC-3 prostate
[42] = test system: SK-OV-3 ovarian
[43] = test system: CAKI-1 renal
[44] = test system: HL-60(TB) leukemia
[45] = test system: MOLT-4 leukemia
[46] = test system: M14 melanoma
[47] = test system: UACC-62 melanoma
[48] = test system: MDA-MB-468 breast
[49] = test system: NCI-H226 lung
[50] = test system: SF-268 CNS
[51] = test system: COLO 205 colon
[52] = test system: U251 CNS
[53] = test system: 786-0 renal
[54] = test system: LOX IMVI melanoma
[55] = test system: OVCAR-8 ovarian
[56] = test system: SK-MEL-2 melanoma
[57] = test system: SNB-75 CNS
[58] = test system: UO-31 renal
[59] = test system: MDA-MB-231 breast

With `O=C(Nc1nc2ccc([N+](=O)[O-])cc2s1)Nc1ccccc1I` the GI50 [1] was 3.97 µM, the TGI [1] was > 100 µM and the GI50 [2] was 3.57 µM. It also gave a TGI [2] of 52 µM, a GI50 [3] of 3.17 µM and a TGI [3] of 16 µM. The GI50 [4] was 2.06 µM, the TGI [4] was 5.03 µM and the GI50 [5] was 9.78 µM. The TGI [5] was 86.6 µM, the GI50 [6] was 6.16 µM and the TGI [6] was 21.4 µM. The GI50 [7] was 3.78 µM, the TGI [7] was > 100 µM and the GI50 [8] was 4.25 µM. The TGI [8] was > 100 µM, the GI50 [9] was 3.23 µM and the TGI [9] was 13.9 µM. The GI50 [10] was 3.23 µM, the TGI [10] was > 100 µM and the GI50 [11] was 2.91 µM. It also gave a TGI [11] of 11 µM, a GI50 [12] of 3.58 µM and a TGI [12] of 15.6 µM. The GI50 [13] was 3.11 µM, the TGI [13] was 10.7 µM and the GI50 [14] was 3.1 µM. For the same compound, the TGI [14] was 12.2 µM, the GI50 [15] was 2.86 µM and the TGI [15] was 10.5 µM. The GI50 [16] was 4.12 µM, the TGI [16] was 23.4 µM and the GI50 [17] was 2.3 µM. For the same compound, the TGI [17] was 6.95 µM, the GI50 [18] was 3.32 µM and the TGI [18] was 19 µM. The GI50 [19] was 4.18 µM, the TGI [19] was 24.2 µM and the GI50 [20] was 4.35 µM. The TGI [20] was 31.7 µM, the GI50 [21] was 3.45 µM and the TGI [21] was 12.9 µM. For the same compound, the GI50 [22] was 2.73 µM, the TGI [22] was 9.1 µM and the GI50 [23] was 5.76 µM. It also gave a TGI [23] of 20 µM, a GI50 [24] of 2.57 µM and a TGI [24] of 8.98 µM. For the same compound, the GI50 [25] was 3.43 µM, the TGI [25] was 24.3 µM and the GI50 [26] was 1.86 µM. For the same compound, the TGI [26] was 3.86 µM, the GI50 [27] was 3.34 µM and the TGI [27] was 14.8 µM. It also gave a GI50 [28] of 2.08 µM, a TGI [28] of 5.74 µM and a GI50 [29] of 3.46 µM. It also gave a TGI [29] of 12.6 µM, a GI50 [30] of 3.05 µM and a TGI [30] of 12.3 µM. For the same compound, the GI50 [31] was 3.55 µM, the TGI [31] was 16.4 µM and the GI50 [32] was 2.76 µM. The TGI [32] was 8.15 µM, the GI50 [33] was 3.12 µM and the TGI [33] was 11.8 µM. For the same compound, the GI50 [34] was 3.94 µM, the TGI [34] was > 100 µM and the GI50 [35] was 3.4 µM. For the same compound, the TGI [35] was 14.6 µM, the GI50 [36] was 3.81 µM and the TGI [36] was 19.2 µM. It also gave a GI50 [37] of 2.57 µM, a TGI [37] of 8.12 µM and a GI50 [38] of 3.82 µM. For the same compound, the TGI [38] was > 100 µM, the GI50 [39] was 2.37 µM and the TGI [39] was 8.4 µM. The GI50 [40] was 3.4 µM, the TGI [40] was 39 µM and the GI50 [41] was 3.43 µM. For the same compound, the TGI [41] was 84.2 µM, the GI50 [42] was 2.67 µM and the TGI [42] was 9.38 µM. For the same compound, the GI50 [43] was 3.46 µM, the TGI [43] was > 100 µM and the GI50 [44] was 2.15 µM. It also gave a TGI [44] of 7.92 µM, a GI50 [45] of 2.92 µM and a TGI [45] of 8.41 µM. The GI50 [46] was 4.28 µM, the TGI [46] was 89.8 µM and the GI50 [47] was 3.31 µM. The TGI [47] was 37.1 µM, the GI50 [48] was 2.41 µM and the TGI [48] was 7.79 µM. The GI50 [49] was 3.77 µM, the TGI [49] was 19.4 µM and the GI50 [50] was 3.78 µM. For the same compound, the TGI [50] was > 100 µM, the GI50 [51] was 4.89 µM and the TGI [51] was 20 µM. For the same compound, the GI50 [52] was 3.3 µM, the TGI [52] was 12.7 µM and the GI50 [53] was 3.61 µM. The TGI [53] was 32.1 µM, the GI50 [54] was 3.67 µM and the TGI [54] was 15.1 µM. It also gave a GI50 [55] of 4.58 µM and a TGI [55] of 20.6 µM.

`CN1CCN(c2ccc(Nc3nc(N4CCN(S(=O)(=O)c5ccc(Cl)cc5)CC4)c4sccc4n3)cc2)CC1` showed a GI50 [1] of 14.5 µM, a TGI [1] of 44.8 µM and a GI50 [2] of 4.47 µM. For the same compound, the TGI [2] was 32.6 µM, the GI50 [4] was 1.92 µM and the TGI [4] was 4.82 µM. For the same compound, the GI50 [5] was 15.6 µM, the TGI [5] was 39.5 µM and the GI50 [6] was 28.9 µM. For the same compound, the TGI [6] was 88.8 µM, the GI50 [7] was 1.76 µM and the TGI [7] was 3.31 µM. For the same compound, the GI50 [8] was 3.36 µM, the TGI [8] was 10.8 µM and the GI50 [9] was 2.16 µM. It also gave a TGI [9] of 6.04 µM, a GI50 [10] of 13.1 µM and a TGI [10] of 46.7 µM. It also gave a GI50 [12] of 3.03 µM, a TGI [12] of 11.4 µM and a GI50 [13] of 2.85 µM. For the same compound, the TGI [13] was 7.42 µM, the GI50 [56] was 19.4 µM and the TGI [56] was 40.1 µM. For the same compound, the GI50 [14] was 13.7 µM, the TGI [14] was 34.7 µM and the GI50 [15] was 20.8 µM. It also gave a TGI [15] of 58.7 µM, a GI50 [16] of 2.64 µM and a TGI [16] of 6.18 µM. The GI50 [17] was 10.7 µM, the TGI [17] was 28.7 µM and the GI50 [18] was 3.69 µM. For the same compound, the TGI [18] was 17.1 µM, the GI50 [19] was 1.91 µM and the TGI [19] was 3.68 µM. For the same compound, the GI50 [21] was 1.69 µM, the TGI [21] was 3.16 µM and the GI50 [24] was 7.17 µM. For the same compound, the TGI [24] was 35.9 µM, the GI50 [25] was 6.47 µM and the TGI [25] was 21.6 µM. The GI50 [28] was 2.89 µM, the TGI [28] was 6.13 µM and the GI50 [30] was 22 µM. For the same compound, the TGI [30] was 59.8 µM, the GI50 [31] was 1.93 µM and the TGI [31] was 3.69 µM. It also gave a GI50 [32] of 19.1 µM, a TGI [32] of 66.3 µM and a GI50 [33] of 10.9 µM. It also gave a TGI [33] of 39.7 µM, a GI50 [34] of 14.9 µM and a TGI [34] of 38.7 µM. The GI50 [36] was 4.35 µM, the TGI [36] was 24.9 µM and the GI50 [37] was 17.5 µM. It also gave a TGI [37] of 31.6 µM, a GI50 [38] of 4.85 µM and a TGI [38] of 20 µM. For the same compound, the GI50 [39] was 1.64 µM, the TGI [39] was 3.03 µM and the GI50 [57] was 9.97 µM. For the same compound, the TGI [57] was 24.3 µM, the GI50 [40] was 1.73 µM and the TGI [40] was 3.36 µM. For the same compound, the GI50 [41] was 4.01 µM, the TGI [41] was > 100 µM and the GI50 [42] was 26.8 µM. The TGI [42] was 69.2 µM, the GI50 [43] was 11.6 µM and the TGI [43] was 27.8 µM. The GI50 [44] was 2.1 µM, the TGI [44] was 4.47 µM and the GI50 [45] was 2.21 µM. For the same compound, the TGI [45] was 5.78 µM, the GI50 [46] was 1.85 µM and the TGI [46] was 3.62 µM. It also gave a GI50 [58] of 13.7 µM, a TGI [58] of 29.6 µM and a GI50 [47] of 1.71 µM. It also gave a TGI [47] of 3.25 µM, a GI50 [48] of 1.64 µM and a TGI [48] of 3.14 µM. The GI50 [49] was 18.7 µM, the TGI [49] was 55.5 µM and the GI50 [59] was 1.71 µM. For the same compound, the TGI [59] was 3.27 µM, the GI50 [50] was 13.5 µM and the TGI [50] was 39 µM. It also gave a GI50 [51] of 2.67 µM and a TGI [51] of 7.54 µM.
